Reference: patent US11248234B2, “Herbicide-resistant hydroxyphenylpyruvate dioxygenases” (BASF SE, priority 2015, dated 2022)

Assays:
[1] = biological target: Scenedesmus Short HPPD (Seq ID: 4) (Tetradesmus obliquus, UniProt A0A383WMN4, DEL398-433/N195D); assay: In vitro HPPD activity assay; format: biochemical; conditions: for TI (normalized tolerance index): normalized on Arabidopsis wild-type HPPD (SEQ ID NO:42)
Procedure: (§1) HPPD produces homogentisic acid and CO2 from 4-hydroxyphenylpyruvate (4-HPP) and O2. The activity assay for HPPD is based on the analysis of homogentisic acid by reversed phase HPLC.
(§2) The assay mixture can contain 150 mM potassium phosphate buffer pH 7.0, 50 mM L-ascorbic acid, 100 μM Catalase (Sigma-Aldrich), 1 μM FeSO4 and 0.2 units of purified mutated HPPD enzyme in a total volume of 505 μl. 1 unit is defined as the amount of enzyme that is required to produce 1 nmol of HGA per minute at 20° C.
(§3) After a preincubation of 30 min the reaction is started by adding 4-HPP to a final concentration of 0.05 mM. The reaction is allowed to proceed for 45 min at room temperature. The reaction is stopped by the addition of 50 μl of 4.5 M phosphoric acid. The sample is filtered using a […] pore size PVDF filtration device.
(§4) 5 μl of the cleared sample is analyzed on an UPLC HSS T3 column (particle size 1.8 μm, dimensions 2.1×50 mm; Waters) by isocratic elution using 90% 20 mM NaH2PO4 pH 2.2, 10% methanol (v/v).
(§5) HGA is detected electrochemically at 750 mV (mode: DC; polarity: positive) and quantified by integrating peak areas (Empower software; Waters).
(§6) Inhibitors are dissolved in DMSO (dimethylsulfoxide) to a concentration of 0.5 mM. From this stock solution serial five-fold dilutions are prepared in DMSO, which are used in the assay. The respective inhibitor solution accounts for 1% of the assay volume. Thus, final inhibitor concentrations range from 5 μM to 320 pM, respectively. Activities are normalized by setting the uninhibited enzyme activity to 100%. IC50 values are calculated using non-linear regression.
(§7) Using methods which are described in the above examples or well known in the art, purified, recombinant mutated HPPD enzymes are characterized with respect to their kinetic properties and sensitivity towards HPPD inhibiting herbicides. Apparent michaelis constants (Km) and maximal reaction velocities (Vmax) are calculated by non-linear regression with the software GraphPad Prism 5 (GraphPad Software, La Jolla, USA) using a substrate inhibition model. Apparent kcat values are calculated from Vmax assuming 100% purity of the enzyme preparation. Weighted means (by standard error) of Km and IC50 values are calculated from at least three independent experiments. The Cheng-Prusoff equation for competitive inhibition (Cheng, Y. C.; Prusoff, W. H. Biochem Pharmacol 1973, 22, 3099-3108) is used to calculate dissociation constants (Ki).
(§8) Field performance of the HPPD enzyme, which is used as a herbicide tolerance trait may depend not only on its lack of sensitivity towards HPPD inhibiting herbicides but also on its activity. To assess the potential performance of a herbicide tolerance trait a tolerance index (TI) is calculated using the following formula: […]
(§9) Easy comparison and ranking of each trait is enabled by normalizing tolerance indexes on Arabidopsis wild-type HPPD.

[2] = biological target: Scenedesmus HPPD (Seq ID: 2) (Tetradesmus obliquus, UniProt A0A383WMN4, N195D); assay: In vitro HPPD activity assay; format: biochemical; conditions: for TI (normalized tolerance index): normalized on Arabidopsis wild-type HPPD (SEQ ID NO:42)
Procedure: as §1, §2, §3, §4, §5, §6, §7, §8, §9

[3] = test system: transgenic Arabidopsis plants (T2) SoHPPD F363I (short); assay: Greenhouse spray test, injury evaluation; format: in vivo, Arabidopsis thaliana; conditions: 14 DAT
Procedure: (§10) Non-transgenic control plants were treated in parallel and pictures taken 14 days after treatment.
(§11) For post emergence treatment, the test plants are first grown to a height of 3 to 15 cm, depending on the plant habit, and only then treated with the herbicides. For this purpose, the test plants are either sown directly and grown in the same containers, or they are first grown separately and transplanted into the test containers a few days prior to treatment.
(§12) Additionally, T1 and T2 transgenic Arabidopsis plants can be tested for improved tolerance to HPPD-inhibiting herbicides in greenhouse studies. Herbicide injury scoring is done 2-3 weeks after treatment and is rated on a scale of 0 to 100%, 0% being no injury and 100% being complete death.
(§13) Transgenic T2 Arabidopsis plants were sprayed with a range of doses from 1.56-25 g/ha of different HPPD-inhibiting herbicides and injury evaluations were taken two weeks after treatment (FIG. 4). As depicted in Table 8, control plants were severely injured by all doses of herbicides applied, with at least 58% of leaf material being damaged at the lowest application rate and 100% leaf damage at the second application rate.

[4] = test system: transgenic Arabidopsis plants (T2) SoHPPD Q317H (short); assay: Greenhouse spray test, injury evaluation; format: in vivo, Arabidopsis thaliana; conditions: for Injury: 14 DAT
Procedure: as §10, §11, §12, §13

[5] = biological target: T1, Arabidopsis HPPD (Seq ID: 42) (Arabidopsis thaliana, UniProt P93836); assay: In vitro HPPD activity assay (homogentisic acid by HPLC); format: biochemical; conditions: benchmark enzyme; normalized on Arabidopsis wild-type HPPD
T1 construct: His6; made in house; host or cells: E. coli BL21 (DE3)
T1 sequence (P93836 1-445): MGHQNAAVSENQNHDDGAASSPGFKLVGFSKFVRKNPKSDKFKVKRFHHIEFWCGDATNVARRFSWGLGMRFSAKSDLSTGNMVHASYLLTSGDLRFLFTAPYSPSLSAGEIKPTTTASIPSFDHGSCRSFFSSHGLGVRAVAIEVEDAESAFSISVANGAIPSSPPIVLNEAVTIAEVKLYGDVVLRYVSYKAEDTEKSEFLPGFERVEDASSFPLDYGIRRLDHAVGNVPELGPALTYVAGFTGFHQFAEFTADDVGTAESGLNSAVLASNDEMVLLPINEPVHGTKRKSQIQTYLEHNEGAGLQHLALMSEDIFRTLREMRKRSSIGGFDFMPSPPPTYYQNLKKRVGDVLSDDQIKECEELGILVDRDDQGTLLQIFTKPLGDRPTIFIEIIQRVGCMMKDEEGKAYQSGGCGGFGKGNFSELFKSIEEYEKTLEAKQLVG
Procedure: as §1, §2, §3, §4, §5
as §6, with “Thus, final inhibitor concentrations range from 5 μM to 320 pM, respectively.” left out
as §7, with “Apparent kcat values are calculated from Vmax assuming 100% purity of the enzyme preparation.” left out, “experiments.” for “experiments. The Cheng-Prusoff equation for competitive inhibition (Cheng, Y. C.; Prusoff, W. H. Biochem Pharmacol 1973, 22, 3099-3108) is used to calculate dissociation constants (Ki).”
as §8, §9

Sequence of Scenedesmus Short HPPD (Seq ID: 4) (A0A383WMN4 entry or part of it N195D/DEL398-433): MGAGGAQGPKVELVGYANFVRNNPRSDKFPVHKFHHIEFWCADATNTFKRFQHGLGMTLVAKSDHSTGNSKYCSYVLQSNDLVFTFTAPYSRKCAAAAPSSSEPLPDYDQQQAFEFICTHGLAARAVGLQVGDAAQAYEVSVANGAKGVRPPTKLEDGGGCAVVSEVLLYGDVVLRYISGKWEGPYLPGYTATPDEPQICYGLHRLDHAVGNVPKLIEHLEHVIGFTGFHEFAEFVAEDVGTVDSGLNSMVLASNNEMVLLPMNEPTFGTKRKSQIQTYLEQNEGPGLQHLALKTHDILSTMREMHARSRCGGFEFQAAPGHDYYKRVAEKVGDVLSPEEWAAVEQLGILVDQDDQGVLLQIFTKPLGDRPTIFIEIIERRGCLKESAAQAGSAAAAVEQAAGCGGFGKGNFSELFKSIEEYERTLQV
Sequence of Scenedesmus HPPD (Seq ID: 2) (A0A383WMN4 entry or part of it N195D): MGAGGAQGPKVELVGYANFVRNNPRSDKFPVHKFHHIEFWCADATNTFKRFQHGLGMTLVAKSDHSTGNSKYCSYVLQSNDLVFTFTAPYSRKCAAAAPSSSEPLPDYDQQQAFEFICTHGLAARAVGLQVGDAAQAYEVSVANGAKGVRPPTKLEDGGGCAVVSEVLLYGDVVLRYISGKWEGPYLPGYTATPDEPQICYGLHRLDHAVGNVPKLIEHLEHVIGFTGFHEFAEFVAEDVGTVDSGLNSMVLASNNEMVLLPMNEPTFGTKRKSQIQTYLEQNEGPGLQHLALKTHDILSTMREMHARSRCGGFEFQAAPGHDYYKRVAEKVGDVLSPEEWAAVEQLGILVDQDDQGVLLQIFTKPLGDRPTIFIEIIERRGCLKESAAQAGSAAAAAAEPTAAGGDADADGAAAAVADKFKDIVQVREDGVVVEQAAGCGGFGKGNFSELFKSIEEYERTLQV

| Structure (SMILES) | Ki [1] [nM] | Ki [2] [nM] | Injury ([3]; Event B, 1.56 g ai/ha) [%] | Injury ([3]; Event B, 6.25 g ai/ha) [%] | Injury ([3]; Event B, 25 g ai/ha) [%] | Injury ([3]; Event C, 1.56 g ai/ha) [%] | Injury ([3]; Event C, 6.25 g ai/ha) [%] | Injury ([3]; Event C, 25 g ai/ha) [%] | Injury ([4]; Event B, 1.56 g ai/ha) [%] | Injury ([4]; Event B, 6.25 g ai/ha) [%] | Injury ([4]; Event B, 25 g ai/ha) [%] | Injury ([4]; Event C, 1.56 g ai/ha) [%] | Injury ([4]; Event C, 6.25 g ai/ha) [%] | Injury ([4]; Event C, 25 g ai/ha) [%] | TI (normalized tolerance index) [1] | TI (normalized tolerance index) [2] | average damage (leaf injury) ([4]; 25 g ai/ha, average of events) [%] | TI (normalized tolerance index) [5] |
| --- | --- | --- | --- | --- | --- | --- | --- | --- | --- | --- | --- | --- | --- | --- | --- | --- | --- | --- |
| Cc1c(C(=O)c2cnn(C)c2O)ccc(S(C)(=O)=O)c1C1=NOCC1 [Inhibitor 1, [3-(4,5-dihydroisoxazol-3-yl)-2-methyl-4-methylsulfonyl-phenyl]-(5-hydroxy-1-methyl-pyrazol-4-yl)methanone] | 46 | 11 | 0 | 0 | 0 | 0 | 0 | 0 | 0 | 0 | 18 | 0 | 0 | 10 |  |  |  |  |
| CS(=O)(=O)c1ccc(C(=O)C2C(=O)CCCC2=O)c([N+](=O)[O-])c1 [Inhibitor 2, 2-(4-methylsulfonyl-2-nitro-benzoyl)cyclohexane-1,3-dione] |  |  | 0 | 0 | 3 | 5 | 0 | 0 | 0 | 0 | 33 | 0 | 3 | 35 | 0.0 | 0.5 | 34 | 1.0 |
| CCS(=O)(=O)c1cc(C(F)(F)F)ccc1C1=C(O)c2ncccc2C(C)(C)S1(=O)=O [Inhibitor 4, 7-[2-ethylsulfonyl-4-(trifluoromethyl)phenyl]-5,5-dimethyl-6,6-dioxo-thiopyrano[4,3-b]pyridin-8-ol] |  |  |  |  |  |  |  |  |  |  |  |  |  |  | 1.4 | 0.1 |  | 1.0 |
| CC(=O)N(C)c1c(Cl)ccc(C2=C(O)c3ncccc3C(C)(C)S2(=O)=O)c1Cl [Inhibitor 5, N-[2,6-dichloro-3-(8-hydroxy-5,5-dimethyl-6,6-dioxo-thiopyrano[4,3-b]pyridin-7-yl)phenyl]-N-methyl-acetamide] |  |  |  |  |  |  |  |  |  |  |  |  |  |  | 1.3 | 0.0 |  | 1.0 |
| CCSc1ccc(Cl)c(C(=O)Nc2nnnn2C)c1Cl [Inhibitor 8, 2,6-dichloro-3-ethylsulfanyl-N-(1-methyltetrazol-5-yl)benzamide] |  |  |  |  |  |  |  |  |  |  |  |  |  |  | 0.9 | 0.1 |  | 1.0 |
